Tests used:
[1] = target: JAK1 JH2 pseudokinase (Homo sapiens, UniProt P23458); assay: JAK1 JH2 enzyme binding assay in vitro (TR-FRET); conditions: read-out: JAK 1 JH2 IC50
Experimental: Instrumentation: Envision microplate reader (PerkinElmer), Echo (LABCYTE)
Method: in this experiment, the inhibitory effects of compounds on JAK1 JH2 pseudokinase was tested using time-resolved fluorescence resonance energy transfer (TR-FRET) method.
Procedure: compounds were prepared into 10 mM stock solutions using DMSO, which were further diluted into compound dilutions with different concentration gradients in DMSO, and the compound dilutions with 200× final concentration were transferred to a 384-well assay plate using an Echo instrument. The preparation of the following 1× assay working solution: HEPES pH7.5 at a final concentration of 20 mM, MgCl2 at a final concentration of 10 mM, Brij-35 at a final concentration of 0.015%, DTT at a final concentration of 2 mM, BSA at a final concentration of 50 ug/mL. JAK1 JH2 pseudokinase with 3× final concentration, Tb antibody and Tracer were prepared using their respective 1× working solution. 5 uL of JAK1 JH2 pseudokinase was added to a 384-well assay plate, and centrifuged at 1000 rpm for 30 s. 5 uL of Tb antibody was added to the 384-well assay plate, and centrifuged at 1000 rpm for 30 s. 5 uL of Tracer was added to the 384-well assay plate, and centrifuged at 1000 rpm for 30 s. Incubation was performed at room temperature for 60 min, and then at 4° C. overnight. Finally, the 495 nm/520 nm fluorescence signal ratio was measured using the Envision microplate reader (PerkinElmer).
Data Analysis: XLfit, a software developed by IDBS and integrated into the Microsoft Excel environment, was used to process and analyze the test data. […] Thereafter, the concentration and corresponding inhibition rate data were imported into the XLfit software, and the Dose Response One Site 205 model within the software was employed to fit the inhibition rate-concentration curve by four-parameter method, and the IC50 value of the compound was calculated.

[2] = target: Ba/F3 cell line expressing TYK2 (Homo sapiens, UniProt P29597, cells depend on it, form not given); assay: In vitro cellular inhibition assay (Ba/F3 cell proliferation, CellTiter-Glo); type: cell-based; conditions: read-out: IC50 (the source's name)
Experimental: The inhibitory effect of the compounds of formula (I) according to the present invention on the TYK2 signaling pathway in cells was assessed using the following method:
Instrumentation: SpectraMax Paradigm reader.
Method: in this experiment, a Ba/F3 cell line expressing TYK2 was employed to assess the effect of the compounds on cell proliferation inhibition by measuring their effects on cell activity in vitro.
Procedure: a CellTiter-Glo buffer was thawed and placed aside till room temperature. A CellTiter-Glo substrate was placed aside till room temperature and dissolved with the buffer to prepare a CellTiter-Glo working solution. To a 96-well flat bottom transparent drug plate, 98 μL of cell culture medium and 2 μL of gradient diluted compound solution were added. The drug plate was placed aside for 10 min, and then 50 μL of the CellTiter-Glo working solution was added. The drug plate was subsequently shaken on an orbital shaker for 2 min and placed aside at room temperature for an additional 10 min. Finally, the luminescence signal was measured on the SpectraMax Paradigm reader.
Data Analysis: the cell proliferation inhibition rate data were processed using the following formula:
Inhibition Rate (Inh %)=100−(RLUDrug−RLUMin)/(RLUMax−RLUMin)×100%.
The inhibition rates of compounds with different concentrations were calculated in EXCEL, and then GraphPad Prism software was employed to plot inhibition rate curve and calculate relevant parameters, including maximum and minimum cell inhibition rates, IC50 values.

[3] = target: T1, hERG channel (Homo sapiens, UniProt Q12809); assay: hERG potassium channel inhibition assay (manual patch clamp); type: cell-based; conditions: HEK-293 cell line stably expressing hERG channel, at the tested concentrations
T1 construct: expressed in transfected cells; host or cells: HEK-293
T1 sequence (Q12809 whole entry): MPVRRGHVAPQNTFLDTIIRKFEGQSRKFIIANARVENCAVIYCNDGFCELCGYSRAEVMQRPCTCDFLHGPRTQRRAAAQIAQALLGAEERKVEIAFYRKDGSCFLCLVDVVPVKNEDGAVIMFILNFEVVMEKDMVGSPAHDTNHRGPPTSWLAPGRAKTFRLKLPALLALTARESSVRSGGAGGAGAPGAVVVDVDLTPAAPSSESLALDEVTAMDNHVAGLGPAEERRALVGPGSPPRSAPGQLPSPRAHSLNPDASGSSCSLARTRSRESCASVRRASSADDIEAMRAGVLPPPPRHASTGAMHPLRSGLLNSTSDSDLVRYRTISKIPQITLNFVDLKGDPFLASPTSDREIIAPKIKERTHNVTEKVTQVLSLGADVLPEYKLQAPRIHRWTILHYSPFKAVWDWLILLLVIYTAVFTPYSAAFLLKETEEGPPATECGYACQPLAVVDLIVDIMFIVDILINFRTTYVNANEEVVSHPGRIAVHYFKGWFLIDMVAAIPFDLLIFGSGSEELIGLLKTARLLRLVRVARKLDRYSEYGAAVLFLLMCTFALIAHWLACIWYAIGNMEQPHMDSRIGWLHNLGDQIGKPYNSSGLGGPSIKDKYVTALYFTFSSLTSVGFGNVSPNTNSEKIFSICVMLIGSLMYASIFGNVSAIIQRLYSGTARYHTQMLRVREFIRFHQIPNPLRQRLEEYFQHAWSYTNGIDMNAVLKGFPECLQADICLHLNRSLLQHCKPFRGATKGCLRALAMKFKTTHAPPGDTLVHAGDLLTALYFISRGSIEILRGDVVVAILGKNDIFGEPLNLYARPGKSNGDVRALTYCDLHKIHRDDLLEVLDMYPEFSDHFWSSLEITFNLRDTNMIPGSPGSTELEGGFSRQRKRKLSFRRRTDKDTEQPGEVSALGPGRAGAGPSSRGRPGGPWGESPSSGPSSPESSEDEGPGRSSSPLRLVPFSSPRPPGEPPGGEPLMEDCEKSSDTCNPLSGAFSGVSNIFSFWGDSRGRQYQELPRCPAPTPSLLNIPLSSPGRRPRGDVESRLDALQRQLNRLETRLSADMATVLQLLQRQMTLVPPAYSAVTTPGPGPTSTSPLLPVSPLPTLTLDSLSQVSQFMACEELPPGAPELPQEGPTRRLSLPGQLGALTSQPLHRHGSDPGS
Experimental: Instrumentation: HEKA EPC 10 patch clamp amplifier.
Method: in this experiment, the blocking effect of the compounds on the current of the HEK-293 cell line stably expressing hERG channel was measured using the manual patch clamp technique, and the risk of the compounds on the inhibition of cardiac hERG potassium channel was assessed by fitting the concentration effect relationship.
Procedure: in the patch clamp operation, firstly, a capillary glass tube was pulled into a recording electrode using a microelectrode puller, then an electrode filled with intracellular solution was mounted into a microelectrode holder. A microelectrode manipulator was operated under an inverted microscope to immerse the electrode into an extracellular solution and the electrode resistance (Rpip) was recorded. Then, the electrode was slowly brought into contact with the cell surface, and a negative pressure was applied for suction to form a GΩ seal. At this point, a fast capacitance compensation was performed, and a negative pressure was continuously applied to suck and break the cell membrane to form a whole cell recording mode. Finally, a slow capacitance compensation was performed and experimental parameters including series resistance (Rs) and the like were recorded. No leakage compensation was performed. When the hERG current recorded by the whole cell was stable, the administration of drugs commenced, and each drug concentration acted for about 5 min (or until the current stabilization) before detecting the next concentration. A cover glass covered with cells was placed in a recording bath under an inverted microscope, the blank control extracellular solution and the working solution of the compounds to be tested sequentially flowed through the recording bath from low concentration to high concentration by using gravity perfusion to act on the cells, and solution exchange was performed using a peristaltic pump during recording. The current measured by each cell in the extracellular solution without the compound served as its own control group. Each concentration was independently assessed twice. All electrophysiological tests were performed at room temperature.
Data Analysis: firstly, the tail current (Peak tail currentcompound) after the action of each drug concentration and the blank control tail current (Peak tail currentcontrol) were normalized, then the inhibition rate
corresponding to each drug concentration was calculated, and the mean (Mean), standard deviation (SD) and standard error (SE) of the inhibition rate corresponding to each concentration were calculated, with data expressed as Mean±SE. The calculation of IC50 value and the fitting of dose-response curve for the compound were performed using GraphPad Prism software.

[4] = test system: imiquimod-induced mouse psoriasis-like model; assay: Imiquimod-induced mouse psoriasis-like model (PASI score); type: in vivo; conditions: oral gavage, 10 mg/kg, 25 mg/kg, 50 mg/kg, bid, compared with the model group
[5] = target: JAK3 JH1 kinase (Homo sapiens, UniProt P52333); assay: JAK3 JH1 enzyme assay in vitro (TR-FRET); type: biochemical; conditions: TR-FRET; read-out: JAK 3 JH1 IC50
JAK3 JH1 kinase, sequence (P52333 822-1111 limits assumed): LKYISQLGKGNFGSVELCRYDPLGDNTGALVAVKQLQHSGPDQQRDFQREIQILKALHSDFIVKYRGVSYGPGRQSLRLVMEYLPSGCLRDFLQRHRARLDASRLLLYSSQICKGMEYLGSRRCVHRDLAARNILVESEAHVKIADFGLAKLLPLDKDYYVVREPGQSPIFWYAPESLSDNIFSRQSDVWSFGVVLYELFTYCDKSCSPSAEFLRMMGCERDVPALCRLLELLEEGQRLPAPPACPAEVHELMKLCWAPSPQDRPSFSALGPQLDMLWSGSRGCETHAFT

[6] = target: JAK2 JH1 kinase (Homo sapiens, UniProt O60674); assay: JAK2 JH1 enzyme assay in vitro (TR-FRET); type: biochemical; conditions: read-out: JAK 2 JH1 IC50
JAK2 JH1 kinase, sequence (O60674 849-1124 limits assumed): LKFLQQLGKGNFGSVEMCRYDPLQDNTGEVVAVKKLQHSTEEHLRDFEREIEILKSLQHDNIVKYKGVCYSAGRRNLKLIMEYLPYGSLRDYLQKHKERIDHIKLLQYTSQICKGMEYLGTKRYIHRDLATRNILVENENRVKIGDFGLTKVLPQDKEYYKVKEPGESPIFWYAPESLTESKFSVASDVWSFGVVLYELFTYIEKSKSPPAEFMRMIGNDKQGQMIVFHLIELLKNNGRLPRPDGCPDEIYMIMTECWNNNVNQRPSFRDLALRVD

[7] = target: T2, TYK2 JH1 kinase (Homo sapiens, UniProt P29597); assay: TYK2 JH1 enzyme assay in vitro (TR-FRET); type: biochemical
T2 sequence (P29597 897-1176 limits assumed): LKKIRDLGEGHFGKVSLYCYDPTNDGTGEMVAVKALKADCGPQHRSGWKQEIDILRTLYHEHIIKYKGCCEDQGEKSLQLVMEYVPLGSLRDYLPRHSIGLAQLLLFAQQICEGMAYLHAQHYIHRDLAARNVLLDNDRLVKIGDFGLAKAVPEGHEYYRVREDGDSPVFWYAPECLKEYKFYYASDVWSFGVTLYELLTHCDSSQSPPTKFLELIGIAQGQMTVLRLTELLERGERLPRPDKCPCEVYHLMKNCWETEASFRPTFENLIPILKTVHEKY

[8] = target: JAK1 JH1 kinase (Homo sapiens, UniProt P23458); assay: JAK1 JH1 enzyme assay in vitro (TR-FRET); type: biochemical; conditions: read-out: JAK 1 JH1 IC50
JAK1 JH1 kinase, sequence (P23458 875-1153 limits assumed): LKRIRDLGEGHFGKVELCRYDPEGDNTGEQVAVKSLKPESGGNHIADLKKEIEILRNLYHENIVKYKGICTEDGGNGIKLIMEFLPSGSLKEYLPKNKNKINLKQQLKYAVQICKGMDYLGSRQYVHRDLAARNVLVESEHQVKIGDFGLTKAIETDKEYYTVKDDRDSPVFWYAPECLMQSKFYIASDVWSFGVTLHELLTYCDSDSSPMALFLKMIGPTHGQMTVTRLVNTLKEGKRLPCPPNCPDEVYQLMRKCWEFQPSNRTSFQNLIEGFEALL

[9] = target: TYK2 JH2 pseudokinase (Homo sapiens, UniProt P29597); assay: TYK2 JH2 enzyme binding assay in vitro (TR-FRET)
TYK2 JH2 pseudokinase, sequence (P29597 589-875 limits assumed): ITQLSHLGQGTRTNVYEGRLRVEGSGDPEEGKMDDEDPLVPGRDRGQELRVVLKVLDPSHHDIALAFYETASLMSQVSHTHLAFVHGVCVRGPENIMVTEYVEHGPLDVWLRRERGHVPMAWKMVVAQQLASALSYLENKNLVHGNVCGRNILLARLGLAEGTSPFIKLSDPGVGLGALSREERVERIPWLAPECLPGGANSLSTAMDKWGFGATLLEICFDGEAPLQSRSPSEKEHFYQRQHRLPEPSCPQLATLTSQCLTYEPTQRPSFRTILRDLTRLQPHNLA
Experimental: Instrumentation: Envision microplate reader (PerkinElmer), ECHO550 (LABCYTE).
Method: the inhibitory effects of compounds on TYK2 JH2 pseudokinase was tested using time-resolved fluorescence resonance energy transfer (TR-FRET) method.
Procedure: compounds were prepared into 10 mM stock solutions using DMSO, which were further diluted into compound dilutions (200×) with different concentration gradients in DMSO, and the compound dilutions (200×) were transferred to a 384-well assay plate using an Echo instrument. […] TYK2 JH2 pseudokinase, Tb antibody, and Tracer working solutions were prepared using the dilution buffer, respectively. 5 uL of TYK2 JH2 pseudokinase working solution (final concentration 0.5 nM) was added to a 384-well assay plate, and centrifuged at 1000 rpm for 30 s. 5 uL of Tb antibody (final concentration 1×) was added to the 384-well assay plate, and centrifuged at 1000 rpm for 30 s. 5 uL of Tracer (final concentration 0.5 nM) was added to the 384-well assay plate, and centrifuged at 1000 rpm for 30 s. Incubation was performed at room temperature for 60 min, and then at 4° C. overnight.
Data Analysis: XLfit, a software developed by IDBS and integrated into the Microsoft Excel environment, was used to process and analyze the test data.

JAK1 JH2 pseudokinase, sequence (P23458 583-855 limits assumed): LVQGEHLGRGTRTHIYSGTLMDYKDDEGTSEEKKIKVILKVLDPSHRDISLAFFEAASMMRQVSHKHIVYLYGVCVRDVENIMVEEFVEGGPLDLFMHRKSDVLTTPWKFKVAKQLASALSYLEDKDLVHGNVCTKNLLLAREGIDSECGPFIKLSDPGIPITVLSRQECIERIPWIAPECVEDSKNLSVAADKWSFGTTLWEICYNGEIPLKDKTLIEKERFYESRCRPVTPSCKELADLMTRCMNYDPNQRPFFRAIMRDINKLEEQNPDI

## [2H]C([2H])([2H])NC(=O)c1nnc(NC(=O)C2CC2)cc1Nc1cccc(C(=O)Nc2ccc(C)cc2)c1OC [Example 2]
[1]
  IC50: 6.56 nM
[2]
  GI50: 1 to 5 nM
[3]
  hERG inhibition: no significant inhibition
[4]
  Improvement of psoriasis symptoms by oral administration: effectively improve psoriasis symptoms
[5]
  IC50: > 10000 nM
[6]
  IC50: > 10000 nM
[7]
  IC50: > 10000 nM
[8]
  IC50: > 10000 nM
[9]
  IC50: 0.311 nM

## [2H]C([2H])([2H])NC(=O)c1nnc(NC(=O)C2CC2)cc1Nc1cccc(C(=O)Nc2ccc(C)c(C)c2)c1OC [Example 4]
[1]
  IC50: 5.33 nM
[2]
  GI50: 1 to 5 nM
[3]
  hERG inhibition: no significant inhibition
[4]
  Improvement of psoriasis symptoms by oral administration: effectively improve psoriasis symptoms
[5]
  IC50: > 10000 nM
[6]
  IC50: > 10000 nM
[7]
  IC50: > 10000 nM
[8]
  IC50: > 10000 nM
[9]
  IC50: 0.293 nM

## [2H]C([2H])([2H])NC(=O)c1cnc(NC(=O)C2CC2)cc1Nc1cccc(C(=O)Nc2ccc(C)c(C)c2)c1OC [Example 62]
[1]
  IC50: 14.3 nM
[2]
  GI50: 1 to 5 nM
[3]
  hERG inhibition: no significant inhibition
[4]
  Improvement of psoriasis symptoms by oral administration: effectively improve psoriasis symptoms
[5]
  IC50: > 10000 nM
[6]
  IC50: > 10000 nM
[7]
  IC50: > 10000 nM
[8]
  IC50: > 10000 nM
[9]
  IC50: 0.277 nM

## [2H]C([2H])([2H])NC(=O)c1nnc(NC(=O)C2CC2)cc1Nc1cccc(C(=O)Nc2cncc(C)c2)c1OC [Example 38]
[1]
  IC50: 2.35 nM
[2]
  GI50: 1 to 5 nM
[3]
  hERG inhibition: no significant inhibition
[4]
  Improvement of psoriasis symptoms by oral administration: effectively improve psoriasis symptoms
[5]
  IC50: > 10000 nM
[6]
  IC50: > 10000 nM
[7]
  IC50: > 10000 nM
[8]
  IC50: > 10000 nM
[9]
  IC50: 0.322 nM

## [2H]C([2H])([2H])NC(=O)c1cnc(NC(=O)C2CC2)cc1Nc1cccc(C(=O)Nc2cccc(C)c2)c1OC [Example 55]
[1]
  IC50: 3.3 nM
[2]
  GI50: 1 to 5 nM
[3]
  hERG inhibition: no significant inhibition
[4]
  Improvement of psoriasis symptoms by oral administration: effectively improve psoriasis symptoms
[5]
  IC50: > 10000 nM
[6]
  IC50: > 10000 nM
[7]
  IC50: > 10000 nM
[8]
  IC50: > 10000 nM
[9]
  IC50: 0.298 nM

## [2H]C([2H])([2H])NC(=O)c1cnc(NC(=O)C2CC2)cc1Nc1cccc(C(=O)Nc2ccc(F)cc2)c1OC [Example 57, 6-(Cyclopropanecarboxamido)-4-((3-((4-fluorophenyl)carbamoyl)-2-methoxyphenyl)amino)-N-(methyl-d3)nicotinamide]
[1]
  IC50: 5.68 nM
[2]
  GI50: 1 to 5 nM
[3]
  hERG inhibition: no significant inhibition
[4]
  Improvement of psoriasis symptoms by oral administration: effectively improve psoriasis symptoms
[5]
  IC50: > 10000 nM
[6]
  IC50: > 10000 nM
[7]
  IC50: > 10000 nM
[8]
  IC50: > 10000 nM
[9]
  IC50: 0.284 nM

## [2H]C([2H])([2H])NC(=O)c1cnc(NC(=O)C2CC2)cc1Nc1cccc(C(=O)Nc2cnn(C)c2)c1OC [Example 86]
[1]
  IC50: 17.6 nM
[2]
  GI50: 1 to 5 nM
[3]
  hERG inhibition: no significant inhibition
[4]
  Improvement of psoriasis symptoms by oral administration: effectively improve psoriasis symptoms
[5]
  IC50: > 10000 nM
[6]
  IC50: > 10000 nM
[7]
  IC50: > 10000 nM
[8]
  IC50: > 10000 nM
[9]
  IC50: 0.299 nM

## [2H]C([2H])([2H])NC(=O)c1cnc(NC(=O)C2CC2)cc1Nc1cccc(C(=O)Nc2ccc(F)nc2)c1OC [Example 98]
[2]
  GI50: 5 to 10 nM

## [2H]C([2H])([2H])NC(=O)c1nnc(NC(=O)C2CC2)cc1Nc1cccc(C(=O)Nc2cccc(CC)c2)c1OC [Example 13]
[2]
  GI50: 5 to 10 nM

## [2H]C([2H])([2H])NC(=O)c1cnc(NC(=O)C2CC2)cc1Nc1cccc(C(=O)Nc2ccc(OC)c(C)c2)c1OC [Example 83]
[2]
  GI50: 5 to 10 nM

## [2H]C([2H])([2H])NC(=O)c1nnc(NC(=O)C2CC2)cc1Nc1cccc(C(=O)Nc2cccnc2)c1OC [Example 49]
[2]
  GI50: 5 to 10 nM

## [2H]C([2H])([2H])NC(=O)c1cnc(NC(=O)C2CC2)cc1Nc1cccc(C(=O)Nc2ccnc(C)c2)c1OC [Example 90]
[2]
  GI50: 5 to 10 nM

## [2H]C([2H])([2H])NC(=O)c1cnc(NC(=O)C2CC2)cc1Nc1cccc(C(=O)Nc2ccc(F)cn2)c1OC [Example 94]
[2]
  GI50: 5 to 10 nM

## [2H]C([2H])([2H])NC(=O)c1cnc(NC(=O)C2CC2)cc1Nc1cccc(C(=O)Nc2cc(C)cc(C)c2)c1OC [Example 61]
[2]
  GI50: 5 to 10 nM

## [2H]C([2H])([2H])NC(=O)c1cnc(NC(=O)C2CC2)cc1Nc1cccc(C(=O)Nc2ncc(F)cn2)c1OC [Example 93]
[2]
  GI50: 5 to 10 nM

— patent US20260098017A1, “NOVEL AROMATIC RING DERIVATIVE CONTAINING AMIDE SUBSTITUTION AND USE THEREOF” (TIANJIN PHARMACEUTICAL BIOTECHNOLOGY CO., LTD., priority 2022, published 2026)
